As a reminder, the inhibition is the change of the read-out against control, counted positive when it falls.

In one data set the target is T1, hTLR9 (Homo sapiens, UniProt Q9NR96).
T1 sequence (Q9NR96 26-1032): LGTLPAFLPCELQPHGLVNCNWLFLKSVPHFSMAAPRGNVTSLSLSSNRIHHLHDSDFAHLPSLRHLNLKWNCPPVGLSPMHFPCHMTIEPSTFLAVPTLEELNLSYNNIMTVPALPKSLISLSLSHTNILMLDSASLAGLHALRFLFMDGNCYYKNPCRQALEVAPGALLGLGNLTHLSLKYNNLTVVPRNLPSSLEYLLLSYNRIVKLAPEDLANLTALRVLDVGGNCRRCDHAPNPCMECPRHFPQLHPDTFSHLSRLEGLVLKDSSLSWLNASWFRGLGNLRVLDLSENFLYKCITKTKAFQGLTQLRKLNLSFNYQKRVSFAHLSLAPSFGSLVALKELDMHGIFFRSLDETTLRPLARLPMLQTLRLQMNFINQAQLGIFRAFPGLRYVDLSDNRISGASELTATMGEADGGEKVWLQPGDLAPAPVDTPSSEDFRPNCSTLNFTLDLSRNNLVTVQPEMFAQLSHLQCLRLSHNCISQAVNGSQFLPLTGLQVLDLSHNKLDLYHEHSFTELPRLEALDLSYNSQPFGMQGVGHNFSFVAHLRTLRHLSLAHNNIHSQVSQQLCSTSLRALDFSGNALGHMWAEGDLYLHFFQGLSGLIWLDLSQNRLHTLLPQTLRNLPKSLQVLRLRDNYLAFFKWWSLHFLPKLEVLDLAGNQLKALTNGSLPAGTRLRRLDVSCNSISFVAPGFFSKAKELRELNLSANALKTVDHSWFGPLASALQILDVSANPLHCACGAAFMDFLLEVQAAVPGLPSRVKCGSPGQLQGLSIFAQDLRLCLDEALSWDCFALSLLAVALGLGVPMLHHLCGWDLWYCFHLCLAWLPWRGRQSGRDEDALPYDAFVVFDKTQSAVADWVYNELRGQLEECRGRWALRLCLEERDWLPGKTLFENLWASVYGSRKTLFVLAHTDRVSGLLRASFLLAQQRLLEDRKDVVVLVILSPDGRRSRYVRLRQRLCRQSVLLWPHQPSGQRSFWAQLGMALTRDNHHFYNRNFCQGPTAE
Description: HEK293-Blue-hTLR-9 cells assay (SEAP reporter, ODN2006 stimulation). The data set is classed as cell-based. On the set-up: host or cells: HEK293 (HEK-Blue). The settings on record: HEK293-Blue-hTLR9 cells, ODN2006, 20 hrs; read-out: HEK/hTLR9 IC50. Put shortly:
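HEK293-Blue-hTLR9 cells (250,000-450,000 cells/mL) in DMEM with 10% FBS were treated with serially diluted compound (1% DMSO final) plus ODN2006 for 20 hrs at 37 °C. Supernatant SEAP activity was measured with QUANTI-Blue substrate for 2 hrs at 37 °C, reading absorbance at 620-655 nm.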

In another data set the target is T2, CYP2D6 (Homo sapiens, UniProt P10635).
T2 construct: tissue BD-Gentest 452117; host or cells: human liver microsomes
Description: CYP inhibition assay in human liver microsome. The data set is classed as in vitro ADME. The settings on record: human liver microsomes, probe dextromethorphan, 10µM test compound, dextromethorphan substrate, <0: not or weak inhibitor, read-out: CYP 2D6 inhibition %@10µM. In short, it runs like this: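 HLM mixed with CYP2D6 substrate, preincubated 10 min at 37 °C, started with NADPH regenerating system and run 10 min at 37 °C before acetonitrile quench. Metabolite measured by RapidFire MS/MS against D3-dextrorphan internal standard. % inhibition scaled between DMSO and concentrated-inhibitor controls.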

T2 sequence (P10635 whole entry): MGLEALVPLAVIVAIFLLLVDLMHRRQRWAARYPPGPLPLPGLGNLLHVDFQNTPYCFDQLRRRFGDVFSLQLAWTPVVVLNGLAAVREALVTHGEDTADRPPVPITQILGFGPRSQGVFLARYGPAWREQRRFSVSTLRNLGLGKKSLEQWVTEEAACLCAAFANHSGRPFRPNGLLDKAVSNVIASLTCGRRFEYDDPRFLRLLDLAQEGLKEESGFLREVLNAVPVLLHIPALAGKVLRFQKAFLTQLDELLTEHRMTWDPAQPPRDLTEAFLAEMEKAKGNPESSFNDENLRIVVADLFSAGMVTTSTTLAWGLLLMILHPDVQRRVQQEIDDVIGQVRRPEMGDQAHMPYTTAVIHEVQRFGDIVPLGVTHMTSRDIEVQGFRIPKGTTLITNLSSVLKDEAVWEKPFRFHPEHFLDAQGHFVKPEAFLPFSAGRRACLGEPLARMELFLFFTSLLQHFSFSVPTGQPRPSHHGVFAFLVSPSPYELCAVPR

For the molecule `C[C@@H]1CN(c2ccc(C#N)c3ncccc23)C[C@H](CN2CCN(c3cc4c(cn3)CNC4)CC2)O1` [Example 18, 5-[(2S,6R)-2-[[4-(2,3-dihydro-1H-pyrrolo[3,4-c]pyridin-6-yl)piperazin-1-yl]methyl]-6-methyl-morpholin-4-yl] quinoline-8-carbonitrile], the IC50 at hTLR9 turned out to be 98 nM. The inhibition at 10 min, 10 µM at CYP2D6 worked out at 13%.
The like results for `C[C@@H]1CN(c2ccc(C#N)c3ncccc23)C[C@H](CN2CCN(c3ncc4c(n3)CNC4)CC2)O1` [Example 11, 5-[(2S,6R)-2-[[4-(6,7-dihydro-5Hpyrrolo[3,4-d]pyrimidin-2-yl)piperazin-1-yl]methyl]-6-methyl-morpholin-4-yl]quinoline-8-carbonitrile] were, in that order, 252 nM and 19%.
For `C[C@@H]1CN(c2ccc(C#N)c3nccnc23)C[C@H](CN2CCN(c3cc4c(cn3)CN[C@@H](C)C4)CC2)O1` (single isomer, unassigned) [Example 84], the IC50 on hTLR9 worked out at 90 nM. In addition, on CYP2D6, the inhibition at 10 min, 10 µM is -1.5%.
For the molecule `COC1CNCc2ccc(N3CCN(C[C@H]4CN(c5ccc(C#N)c6ncccc56)C[C@@H](C)O4)CC3)cc21` (stereo partly drawn) [Example 58, 5-[(2S,6R)-2-[[4-(4-methoxy-1,2,3,4-tetrahydroisoquinolin-6-yl)piperazin-1-yl]methyl]-6-methyl-morpholin-4-yl]quinoline-8-carbonitrile], the IC50 at hTLR9 was 92 nM. For the same molecule, the inhibition at 10 min, 10 µM on CYP2D6 stood at 13%.
As to `C[C@@H]1CN(c2ccc(C#N)c3ncccc23)C[C@H](CN2CCN(c3cc4c(cn3)CNCC4)CC2)O1` [Example 19, 5-[(2R,6S)-2-methyl-6-[[4-(5,6,7,8-tetrahydro-2,7-naphthyridin-3-yl)piperazin-1-yl]methyl]morpholin-4-yl]quinoline-8-carbonitrile], the IC50 at hTLR9 was 63 nM. For the same molecule, on CYP2D6, the inhibition at 10 min, 10 µM stood at 7.5%.
The like results for `C[C@@H]1CN(c2ccc(C#N)c3ncccc23)C[C@H](CN2CC3(C2)CN(c2ccc4c(c2)CCNC4)CCO3)O1` [Example 44, 5-[(2R,6S)-2-methyl-6-[[8-(1,2,3,4-tetrahydroisoquinolin-6-yl)-5-oxa-2,8-diazaspiro[3.5]nonan-2-yl]methyl]morpholin-4-yl]quinoline-8-carbonitrile] were, in that order, 85 nM and 4%.
The like results for `C[C@@H]1CN(c2ccc(C#N)c3ncccc23)C[C@H](CN2CCC(Nc3ncc4c(n3)CNC4)C2)O1` (stereo partly drawn) [Example 32, 5-[(2S,6R)-2-[[3-(6,7-dihydro-5H-pyrrolo[3,4-d]pyrimidin-2-ylamino)pyrrolidin-1-yl]methyl]-6-methyl-morpholin-4-yl]quinoline-8-carbonitrile] were, in that order, 99 nM and 17.5%.
The like results for `C[C@@H]1CN(c2ccc(C#N)c3ncccc23)C[C@H](CN2CC3(CCN3c3ccc4c(n3)CCNC4)C2)O1` [Example 36, 5-[(2R,6S)-2-methyl-6-[[1-(5,6,7,8-tetrahydro-1,6-naphthyridin-2-yl)-1,6-diazaspiro[3.3]heptan-6-yl]methyl]morpholin-4-yl]quinoline-8-carbonitrile] were, in that order, 45 nM and 13.5%.
Regarding `C[C@@H]1CN(c2ccc(C#N)c3ncccc23)C[C@H](CN2CCN(c3ccc4c(c3)CCNC4)CC2)O1` [Example 5, 5-[(2R,6S)-2-methyl-6-[[4-(1,2,3,4-tetrahydroisoquinolin-6-yl)piperazin-1-yl]methyl]morpholin-4-yl]quinoline-8-carbonitrile], the IC50 on hTLR9 is 64 nM. Besides, on CYP2D6, the inhibition at 10 min, 10 µM was found to be 0.5%.
The like results for `C[C@@H]1CN(c2ccc(C#N)c3ncccc23)C[C@H](CN2CCN(c3cc4c(cn3)CCNC4)CC2)O1` [Example 20, 5-[(2R,6S)-2-methyl-6-[[4-(5,6,7,8-tetrahydro-2,6-naphthyridin-3-yl)piperazin-1-yl]methyl]morpholin-4-yl]quinoline-8-carbonitrile] were, in that order, 72 nM and -5.5%.
The like results for `C[C@@H]1CN(c2ccc(C#N)c3ncccc23)C[C@H](CN2CCN(c3ccc4c(c3)CCNC4CO)CC2)O1` (stereo partly drawn) [Example 24, 5-[(2S,6R)-2-[[4-[1-(hydroxymethyl)-1,2,3,4-tetrahydroisoquinolin-6-yl]piperazin-1-yl]methyl]-6-methyl-morpholin-4-yl]quinoline-8-carbonitrile] were, in that order, 46 nM and -9.5%.
The like results for `C[C@@H]1CN(c2ccc(C#N)c3ncccc23)C[C@H](CN2CCN(c3ccc4c(n3)CCN(C)C4)CC2)O1` [Example 34, 5-[(2R,6S)-2-methyl-6-[[4-(6-methyl-7,8-dihydro-5H-1,6-naphthyridin-2-yl)piperazin-1-yl]methyl]morpholin-4-yl]quinoline-8-carbonitrile] were, in that order, 86 nM and 4%.
Regarding `C[C@@H]1CN(c2ccc(C#N)c3nccnc23)C[C@H](CN2CCN(c3cnc4c(c3)CNC4)CC2)O1` [Example 25, 8-[(2S,6R)-2-[[4-(6,7-dihydro-5H-pyrrolo[3,4-b]pyridin-3-yl)piperazin-1-yl]methyl]-6-methyl-morpholin-4-yl] quinoxaline-5-carbonitrile], the IC50 on hTLR9 is 90 nM. Further, on CYP2D6, the inhibition at 10 min, 10 µM was -8%.
Consider `C[C@@H]1CN(c2ccc(C#N)c3ncccc23)C[C@H](CN2CCCN(c3nc4c(s3)CNCC4)CC2)O1` [Example 33, 5-[(2R,6S)-2-methyl-6-[[4-(4,5,6,7-tetrahydrothiazolo[5,4-c]pyridin-2-yl)-1,4-diazepan-1-yl]methyl]morpholin-4-yl]quinoline-8-carbonitrile], for which the IC50 at hTLR9 was found to be 90 nM. The inhibition at 10 min, 10 µM on CYP2D6 was -10.5%.
For the molecule `C[C@@H]1CN(c2ccc(C#N)c3ncccc23)C[C@H](CN2CC3(C2)CN(c2cnc4c(c2)CCNC4)CCO3)O1` [Example 46, 5-[(2R,6S)-2-methyl-6-[[8-(5,6,7,8-tetrahydro-1,7-naphthyridin-3-yl)-5-oxa-2,8-diazaspiro[3.5]nonan-2-yl]methyl]morpholin-4-yl]quinoline-8-carbonitrile], the IC50 at hTLR9 stood at 114 nM. Further, the inhibition at 10 min, 10 µM at CYP2D6 was 12%.
The like results for `C[C@@H]1CN(c2ccc(C#N)c3ncccc23)C[C@H](CN2CC3(C2)CN(c2ccc4c(n2)CNCC4)CCO3)O1` [Example 45, 5-[(2R,6S)-2-methyl-6-[[8-(5,6,7,8-tetrahydro-1,7-naphthyridin-2-yl)-5-oxa-2,8-diazaspiro[3.5]nonan-2-yl]methyl]morpholin-4-yl]quinoline-8-carbonitrile] were, in that order, 113 nM and 9%.
The like results for `C[C@@H]1CN(c2ccc(C#N)c3ncccc23)C[C@H](CN2CC3[C@H](C2)OCCN3c2ccc3c(n2)CCNC3)O1` (stereo in doubt) [Example 53, cis-5-[(2R,6S)-2-methyl-6-[[4-(5,6,7,8-tetrahydro-1,6-naphthyridin-2-yl)-2,3,4a,5,7,7a-hexahydropyrrolo[3,4-b][1,4]oxazin-6-yl]methyl]morpholin-4-yl]quinoline-8-carbonitrile] were, in that order, 69 nM and 24%.
The like results for `C[C@@H]1CN(c2ccc(C#N)c3nccnc23)C[C@H](CN2CCN(c3ccc4c(n3)CN[C@H]4C)CC2)O1` (single isomer, unassigned) [Example 78] were, in that order, 131 nM and 0.5%.
As to `C[C@@H]1CN(c2ccc(C#N)c3ncccc23)C[C@H](CN2CCN(c3cc4c(cn3)C[C@H](C)NC4)CC2)O1` (single isomer, unassigned) [Example 76], the IC50 at hTLR9 was 97 nM. Besides, at CYP2D6, the inhibition at 10 min, 10 µM was 6%.
The like results for `C[C@@H]1CN(c2ccc(C#N)c3ncccc23)C[C@H](CN2CCN(c3cnc4c(c3)CCNC4)CC2)O1` [Example 23, 5-[(2R,6S)-2-methyl-6-[[4-(5,6,7,8-tetrahydro-1,7-naphthyridin-3-yl)piperazin-1-yl]methyl]morpholin-4-yl]quinoline-8-carbonitrile] were, in that order, 59 nM and 3.5%.
